According to publication PMC12040169 (PLOS Biology, 2025):

Assay: in vitro
Conditions: human, hela cells, % viability

Compound | viability at 28.5 h, 10 µM [%]
O=C(O)c1cc(C=Cc2cn(Cc3ccccc3)nc2-c2cccnc2)nc2ccccc12 [CBK296988] | 105
Cc1c(C(=O)O)sc2nc(SCC(=O)Nc3ccc(OCc4ccccc4)cc3)[nH]c(=O)c12 [CBK296992] | 88.5
Cc1cc(C(C)(C)C)cc(C)c1COC(=O)c1ccncc1 [CBK296995] | 112
CC(=O)Nc1cccc(NC(=O)c2cc(-c3ccccc3)nn2-c2ccccc2)c1 [CBK296997] | 90.1
C[C@H](NC(=O)Cc1ccc(-c2ccccc2)cc1)c1nc2ccccc2[nH]1 [CBK296998] | 98.5
CC1=C(C(=O)N2CCOCC2)C(c2ccc(Cl)cc2)NC(=O)N1c1ccc(C(=O)O)cc1 (stereo not shown) [CBK296999] | 93.1
CS(=O)(=O)N1CCc2cc(C(=O)Cn3nc(C(=O)O)c4ccccc4c3=O)ccc21 [CBK297000] | 80.4
CC(NC(=O)c1ccccc1)C(=O)OCn1nnc2ccccc2c1=O (stereo not shown) [CBK297001] | 92
Cc1nc2cc(NC(=O)Cc3c(C)nc4ccccc4c3C)ccc2o1 [CBK297083] | 110
CC(=O)Nc1ccc(-c2csc(NC(=O)NS(=O)(=O)c3ccc(C)cc3)n2)cc1 [CBK297084] | 107
Cc1ccc(C(CC(=O)O)NC(=O)c2ccc(C)c(S(=O)(=O)N3CCCCC3)c2)cc1 (stereo not shown) [CBK297095] | 82.7
CC1CCN(S(=O)(=O)c2ccc(C(=O)N3CCC(C(=O)O)CC3)cc2)CC1 [CBK297097] | 105
O=C(O)c1cc(S(=O)(=O)Nc2ccc(OCc3ccccc3)cc2)ccc1Br [CBK297098] | 113
CC(C)(C)c1cc(NC(=O)CSc2ccc(S(=O)(=O)N3CCCC3)cn2)n(-c2ccccc2)n1 [CBK297099] | 89
O=C(Cn1cnc2sc(-c3ccccc3)cc2c1=O)c1ccc2c(c1)OCO2 [CBK297102] | 87
Nc1nc(N)nc(CSc2ncc(-c3ccccc3)n2-c2ccccc2)n1 [CBK297103] | 85.9
Cc1cc(C(=O)C(C)Oc2ccc(-c3nnco3)cc2)c(C)n1-c1ccccc1 (stereo not shown) [CBK297104] | 101
CS(=O)(=O)Cc1cccc(C(=O)Nc2ccc(Oc3ccccc3)cc2)c1 [CBK297111] | 87.5
O=C(O)CC(=Cc1csc(-c2ccc(Cl)cc2)n1)c1nc2ccccc2o1 [CBK297112] | 104
CC1(CCc2ccccc2)NC(=O)N(CC(=O)c2ccc(-c3ccccc3)cc2)C1=O (stereo not shown) [CBK297114] | 107
O=C(C1CN(C(=O)Cn2ncc(=O)c3ccccc32)c2ccccc2O1)N1CCCCC1 (stereo not shown) [CBK297115] | 93.5

Compound | viability at 28.5 h, 10 µM [%]
CC[C@H](C)[C@H](NC(=O)C1CCN(S(=O)(=O)c2ccc(Cl)c(C(F)(F)F)c2)CC1)C(=O)O [CBK297117] | 91.5
Cc1c(C(=O)O)sc(S(=O)(=O)N2CCN(C(=O)c3ccc(C(C)(C)C)cc3)CC2)c1C(=O)O [CBK297119] | 85.1
Cc1c(C(=O)O)sc(S(=O)(=O)N2CCN(C(=O)CCC3CCCC3)CC2)c1C(=O)O [CBK297121] | 117
Cc1cccc(C(=O)N2CCN(S(=O)(=O)c3sc(C(=O)O)c(C)c3C(=O)O)CC2)c1 [CBK297124] | 91.4
CCS(=O)(=O)N1CCc2cc(C(=O)CSc3nnc(-c4ccco4)o3)ccc21 [CBK297126] | 98.3
Cc1c(C(=O)O)sc(S(=O)(=O)N2CCN(C(=O)CCc3cccs3)CC2)c1C(=O)O [CBK297135] | 105
O=C(O)c1cn(C2CC2)c2cc(N3CCN(C(=O)Cc4ccccc4Cl)CC3)c(F)cc2c1=O [CBK297136] | 90.4
CCC(C)C(NC(=O)C1CCN(S(=O)(=O)c2ccc(OC)c(OC)c2)CC1)C(=O)O (stereo not shown) [CBK297140] | 90.7
CC(C)OCc1ccc(C(=O)N2CCC(C(=O)O)CC2)cc1 [CBK297141] | 83.2
CC(Sc1nc(C2CC2)n(-c2ccccc2)n1)C(=O)N1CCNC1=O (stereo not shown) [CBK297144] | 97.2
Cc1ccccc1C(=O)N1CCN(S(=O)(=O)c2sc(C(=O)O)c(C)c2C(=O)O)CC1 [CBK297146] | 102
Cc1c(C(=O)O)sc(S(=O)(=O)N2CCN(C(=O)Cc3ccccc3)CC2)c1C(=O)O [CBK297148] | 96.2
Cc1ccc(C(=O)N2CCN(S(=O)(=O)c3sc(C(=O)O)c(C)c3C(=O)O)CC2)s1 [CBK297150] | 84.8
Cc1ccc(OCC(=O)N2CCN(C(=O)c3cccs3)CC2)c([N+](=O)[O-])n1 [CBK297152] | 94.4
CC(=O)c1ccc(OCc2nc(N)nc(Nc3ccccc3)n2)cc1 [CBK297155] | 83.1
COc1ccc(-c2cc3ncnc(Sc4nnnn4CC4CCCO4)c3s2)cc1 (stereo not shown) [CBK297157] | 95.9
O=C(CSc1nnnn1C1CC1)c1cc2ccccc2o1 [CBK297158] | 90.7
O=C(O)c1c2c(nc3ccccc13)C(=Cc1ccc3c(c1)OCCO3)CC2 [CBK297479] | 96.3
Cc1ccn2c(NS(=O)(=O)c3ccc(CCC(=O)O)cc3)c(-c3cccs3)nc2c1 [CBK297480] | 110
COc1ccc(C(=O)O)cc1S(=O)(=O)Nc1c(-c2cccs2)nc2cc(C)ccn12 [CBK297484] | 82.9
COc1cc(C(=O)NCC(=O)O)cc(Cl)c1OCC(C)C [CBK297485] | 80.8

Compound | viability at 28.5 h, 10 µM [%]
CCc1ccc2c(COC(=O)c3cccnc3SC)cc(=O)oc2c1 [CBK297486] | 85
Nc1c(N(CCO)C(=O)C2CCCC2)c(=O)[nH]c(=O)n1Cc1ccccc1 [CBK297490] | 97.3
CCCCCCn1nc(C(=O)NCC(=O)O)c2ccccc2c1=O [CBK297491] | 97.3
CCOc1ccc(CN(C)C(=O)Cn2nc(C(=O)O)c3ccccc3c2=O)cc1 [CBK297492] | 83.8
COc1ccc(CCNC(=O)CSC(C)C(=O)O)cc1 (stereo not shown) [CBK297493] | 81.4
COc1ccc(-c2nnc(SCC(=O)c3ccc(F)cc3)n2C2CCCCC2C)cc1 (stereo not shown) [CBK297494] | 89.8
O=C(O)c1cc(C=Cc2ccc(Cl)c([N+](=O)[O-])c2)nc2ccccc12 [CBK297495] | 104
CCN(CC)CCn1c2ccccc2c2nc3cc(C(=O)O)ccc3nc21 [CBK297496] | 101
CC(C)(C)N(Cc1ccccc1)C(=O)Cn1nc(C(=O)O)c2ccccc2c1=O [CBK297498] | 86
O=C(Nc1ccc(S(=O)(=O)N2CCCC2)cc1)C1CC(=O)N(Cc2ccco2)C1 (stereo not shown) [CBK297500] | 92.5
CCOc1ccc(N(CCC#N)C(=O)Cn2nc(C(=O)O)c3ccccc3c2=O)cc1 [CBK297502] | 85.2
COc1cc(C=C2SC(=S)N(CCCCCC(=O)O)C2=O)cc(OC)c1 [CBK297505] | 98.1
O=C(c1cc2ccccc2o1)N1CCN(c2cccc(C(F)(F)F)c2)CC1 [CBK297507] | 96.8
COc1ccc(-c2nnc(SCC(=O)Nc3cc(C)on3)n2C2CCCCC2)cc1 [CBK297510] | 84.1
O=[N+]([O-])c1cccc(Cn2c(CO)nc3ccccc32)c1 [CBK297515] | 95.4
CCC(C)c1ccccc1NC(=O)c1cc(=O)[nH]c2ccccc12 (stereo not shown) [CBK297516] | 89.6
COCCn1c(SCc2cc(=O)oc3cc(C)ccc23)nnc1-c1ccc(Cl)cc1 [CBK297517] | 87.8
COc1ccc(-c2nnc(SCc3cc(=O)oc4cc(C)ccc34)n2CC(C)C)cc1 [CBK297518] | 81.3
COc1ccc(OC)c(NC(=O)c2cc(=O)[nH]c3ccccc23)c1 [CBK297521] | 92.7
COC(=O)c1ccc(CSc2nnc(-c3ccc(OC)cc3)n2C(C)C)o1 [CBK297523] | 96.4
CC(=O)N1CC(C(=O)Nc2ccccc2Cc2ccccc2)Oc2ccccc21 (stereo not shown) [CBK297525] | 88.6

Compound | viability at 28.5 h, 10 µM [%]
CCS(=O)(=O)c1ccc(O)c(NS(=O)(=O)c2cc(C(=O)O)ccc2Cl)c1 [CBK297531] | 91.1
O=C(O)c1cc(C=Cc2ccc(OC(F)F)cc2)nc2ccccc12 [CBK297532] | 85.3
C[C@H](Nc1ccc(C(F)(F)F)cc1[N+](=O)[O-])C(=O)NCCOc1ccccc1F [CBK297535] | 106
O=C(OCc1cc([N+](=O)[O-])cc2c1OCOC2)c1ccco1 [CBK297537] | 97.9
O=C(Cn1nc(C(=O)O)c2ccccc2c1=O)c1ccc(C2CCCCC2)cc1 [CBK297538] | 89.5
Cc1ccc(-n2c(SCC(=O)N3CCC(C(=O)O)CC3)nc3ccccc3c2=O)cc1C [CBK297540] | 81.4
Cc1nc(SCC(=O)c2cc(Cl)ccc2Cl)c2ccccc2n1 [CBK297543] | 100
Cc1ccc(NC(=S)NCCNc2ccccn2)cc1Cl [CBK297544] | 105
Cc1cc(=O)n2c(C(=O)Nc3cccc(C(=O)O)c3)c(C(=O)Nc3cccc(C)c3C)sc2n1 [CBK297545] | 101
Cc1cc(=O)n2c(C(=O)Nc3ccc(C(=O)O)cc3)c(C(=O)Nc3cccc(C)c3C)sc2n1 [CBK297547] | 89.5
CC1Cc2ccccc2N1C(=O)Cn1c(CCCO)nc2ccccc21 (stereo not shown) [CBK297548] | 86.1
Cc1ccc(Cn2nc(C)c(C(=O)OCc3cc(=O)n4ccccc4n3)c2Cl)cc1 [CBK297550] | 85.8
O=C(O)CCN1C(=O)C(=Cc2ccc(OCc3ccccc3)cc2)c2ccccc2C1=O [CBK297552] | 105
CCc1ccc(NC(=O)CNc2cc(C)ccc2OC)cc1 [CBK297553] | 107
CCCCn1c(CSc2ncccc2C(=O)O)nc2cc(S(=O)(=O)N3CCOCC3)ccc21 [CBK297558] | 84.1
Cc1nnc(CNC(=O)c2cc(-c3ccc(Cl)cc3)nc3ccccc23)o1 [CBK297717] | 109
Cc1ccccc1CN1CCCN(C(=O)CCNC(=O)c2ccco2)CC1 [CBK297718] | 103
O=C(NCc1ccc(F)cc1)c1ccc(Cn2ccnc2)cc1 [CBK297719] | 96.3

Same assay, conditions: human, hela cells, % viability, bulk resorufin, single well

Compound | viability at 28.5 h, 10 µM [%]
O=C(C1CCN(S(=O)(=O)c2cccs2)CC1)N1CCC(C(=O)O)(c2ccccc2)CC1 [CBK297147] | 88
